How the values were obtained:
E. coli = test: Molecular phenotypic antimicrobial susceptibility test with direct PCR (no extraction DNA purification step); format: cell-based, Escherichia coli
[1] = system: pathogens of clinical samples; test: Molecular phenotypic antimicrobial susceptibility test of clinical samples, extraction DNA purification step prior to PCR (Table 6); format: cell-based
Outline: (§1)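 Specimens are first pre-incubated in medium, then diluted to 0.5 McFarland guided by optical density. They are exposed 12-16 h to antimicrobials at sensitivity breakpoints. Finally, either bead-based purification or lysis for direct PCR precedes semi-quantitative PCR.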

[2] = system: pathogens of clinical samples; test: Molecular phenotypic antimicrobial susceptibility test of clinical samples, direct PCR without a separate DNA purification step (Table 6); format: cell-based
Outline: as §1

[3] = E. coli, clinical sample of r10-r24
[4] = E. coli, clinical sample of r158-r172
[5] = K. aerogenes, clinical sample of r136-r150
[6] = K. pneumoniae, clinical sample of r121-r135
[7] = M. morganii, clinical sample of r55-r69
[8] = M. morganii, clinical sample of r70-r84
[9] = P. mirabilis, clinical sample of r25-r39
[10] = P. mirabilis, clinical sample of r40-r54

## CO/N=C(\C(=O)N[C@@H]1C(=O)N2C(C(=O)O)=C(CSc3nc(=O)c(=O)[nH]n3C)CS[C@H]12)c1csc(N)n1 [Ceftriaxone]
E. coli; E. coli #1 - WDCM 00090 - 6.2×E3, specimen with <10,000 cells/mL, direct PCR after 16 hours of incubation
  Molecular Antimicrobial Susceptibility Result: Sensitive (Antimicrobial wells with pathogen load detected below the control wells (typically >2 cycle thresholds later) may be reported as Sensitive)
E. coli; E. coli #1 - WDCM 00090 - 6.2×E3, specimen with <10,000 cells/mL, direct PCR after 16 hours of incubation, Ct at control 13.787
  Ct at Sensitive Breakpoint: 26.31
E. coli; E. coli #2 - WDCM 00090 - 6.2×E3, specimen with <10,000 cells/mL, direct PCR after 16 hours of incubation
  Molecular Antimicrobial Susceptibility Result: Sensitive (Antimicrobial wells with pathogen load detected below the control wells (typically >2 cycle thresholds later) may be reported as Sensitive)
E. coli; E. coli #2 - WDCM 00090 - 6.2×E3, specimen with <10,000 cells/mL, direct PCR after 16 hours of incubation, Ct at control 13.46
  Ct at Sensitive Breakpoint: 27.18
E. coli; E. coli isolate JJ1887, direct PCR, Ct at control (average) 12.832
  Ct at Sensitive Breakpoint: 12.353
E. coli; E. coli isolate JJ1887, direct PCR, at sensitive breakpoint
  Molecular Antimicrobial Susceptibility Result: Resistant
[1]; [3]
  Molecular Antibiotic Susceptibility Result: Sensitive (Antimicrobial wells with pathogen load detected below the control wells (typically >2 cycle thresholds later) may be reported as Sensitive)
[1]; E. coli, clinical sample of r10-r24, Ct Control Avg 18.112
  Ct: 26.029
[1]; [4]
  Molecular Antibiotic Susceptibility Result: Sensitive (Antimicrobial wells with pathogen load detected below the control wells (typically >2 cycle thresholds later) may be reported as Sensitive)
[1]; E. coli, clinical sample of r158-r172, Ct Control Avg 20.146
  Ct: 29.851
[1]; [5]
  Molecular Antibiotic Susceptibility Result: Sensitive (Antimicrobial wells with pathogen load detected below the control wells (typically >2 cycle thresholds later) may be reported as Sensitive)
[1]; K. aerogenes, clinical sample of r136-r150, Ct Control Avg 19.994
  Ct: 33.124
[1]; [6]
  Molecular Antibiotic Susceptibility Result: Sensitive (Antimicrobial wells with pathogen load detected below the control wells (typically >2 cycle thresholds later) may be reported as Sensitive)
[1]; K. pneumoniae, clinical sample of r121-r135, Ct Control Avg 24.272
  Ct: 33.145
[1]; [7]
  Molecular Antibiotic Susceptibility Result: Sensitive (Antimicrobial wells with pathogen load detected below the control wells (typically >2 cycle thresholds later) may be reported as Sensitive)
[1]; M. morganii, clinical sample of r55-r69, Ct Control Avg 28.86
  Ct: 35.749
[1]; [8]
  Molecular Antibiotic Susceptibility Result: Sensitive (Antimicrobial wells with pathogen load detected below the control wells (typically >2 cycle thresholds later) may be reported as Sensitive)
[1]; M. morganii, clinical sample of r70-r84, Ct Control Avg 27.053
  Ct: 36.141
[1]; [9]
  Molecular Antibiotic Susceptibility Result: Sensitive (Antimicrobial wells with pathogen load detected below the control wells (typically >2 cycle thresholds later) may be reported as Sensitive)
[1]; P. mirabilis, clinical sample of r25-r39, Ct Control Avg 26.064
  Ct: 29.277
[1]; [10]
  Molecular Antibiotic Susceptibility Result: Sensitive (Antimicrobial wells with pathogen load detected below the control wells (typically >2 cycle thresholds later) may be reported as Sensitive)
[1]; P. mirabilis, clinical sample of r40-r54, Ct Control Avg 26.987
  Ct: 32.789
[2]; [3]
  Molecular Antibiotic Susceptibility Result: Sensitive (Antimicrobial wells with pathogen load detected below the control wells (typically >2 cycle thresholds later) may be reported as Sensitive)
[2]; E. coli, clinical sample of r10-r24, Ct control avg 12.97
  Ct: 24.791
[2]; [4]
  Molecular Antibiotic Susceptibility Result: Sensitive (Antimicrobial wells with pathogen load detected below the control wells (typically >2 cycle thresholds later) may be reported as Sensitive)
[2]; E. coli, clinical sample of r158-r172, Ct control avg 12.894
  Ct: 30.396
[2]; [5]
  Molecular Antibiotic Susceptibility Result: Sensitive (Antimicrobial wells with pathogen load detected below the control wells (typically >2 cycle thresholds later) may be reported as Sensitive)
[2]; K. aerogenes, clinical sample of r136-r150, Ct control avg 13.854
  Ct: 29.137
[2]; [6]
  Molecular Antibiotic Susceptibility Result: Sensitive (Antimicrobial wells with pathogen load detected below the control wells (typically >2 cycle thresholds later) may be reported as Sensitive)
[2]; K. pneumoniae, clinical sample of r121-r135, Ct control avg […]
  Ct: 28.004
[2]; [7]
  Molecular Antibiotic Susceptibility Result: Sensitive (Antimicrobial wells with pathogen load detected below the control wells (typically >2 cycle thresholds later) may be reported as Sensitive)
[2]; M. morganii, clinical sample of r55-r69, Ct control avg 12.09
  Ct: 29.28
[2]; [8]
  Molecular Antibiotic Susceptibility Result: Sensitive (Antimicrobial wells with pathogen load detected below the control wells (typically >2 cycle thresholds later) may be reported as Sensitive)
[2]; M. morganii, clinical sample of r70-r84, Ct control avg 11.677
  Ct: 28.625
[2]; [9]
  Molecular Antibiotic Susceptibility Result: Sensitive (Antimicrobial wells with pathogen load detected below the control wells (typically >2 cycle thresholds later) may be reported as Sensitive)
[2]; P. mirabilis, clinical sample of r25-r39, Ct control avg 11.801
  Ct: 22.976
[2]; [10]
  Molecular Antibiotic Susceptibility Result: Sensitive (Antimicrobial wells with pathogen load detected below the control wells (typically >2 cycle thresholds later) may be reported as Sensitive)
[2]; P. mirabilis, clinical sample of r40-r54, Ct control avg 10.06
  Ct: 28.394
